Test results published in ChEMBL document CHEMBL1159205, “Fomitellic acids, triterpenoid inhibitors of eukaryotic DNA polymerases from a basidiomycete, Fomitella fraxinea” (J Nat Prod, 1998).
In brackets after ≈: the same amount, converted by molar mass.

Key:
[1] = target: DNA polymerase beta (Rattus norvegicus) (UniProt P06766); assay: Inhibition of rat DNA polymerase beta assessed as incorporation of [3H]dTTP
Bos taurus = organism: Bos taurus; assay: Inhibition of calf DNA polymerase alpha assessed as incorporation of [3H]dTTP

| MIC [1] [µM] | MIC (Bos taurus) [µM] | Compound |
| --- | --- | --- |
| 95 (≈ 46.2 µg/mL) | 35 (≈ 17 µg/mL) | CC(C)=CCC[C@@H](C)[C@H]1CC[C@@]2(C)C3=C(CC[C@]12C)[C@]1(C)[C@@H](CC3=O)[C@@](C)(C(=O)O)[C@H](O)C[C@H]1O |
| 90 (≈ 43.8 µg/mL) | 30 (≈ 14.6 µg/mL) | CC(C)=CCC[C@@H](C)[C@H]1CC[C@@]2(C)C3=C(CC[C@]12C)[C@]1(C)[C@@H](CC3=O)[C@@](C)(C(=O)O)[C@@H](O)C[C@H]1O |
| 125 (≈ 62.8 µg/mL) | 75 (≈ 37.7 µg/mL) | CC(C)=CCC[C@@H](C)[C@H]1CC[C@@]2(C)C3=C([C@H](O)C[C@]12C)[C@]1(C)[C@@H](CC3=O)[C@@](C)(C(=O)O)[C@@H](O)C[C@H]1O |
| 130 (≈ 67.2 µg/mL) | 75 (≈ 38.8 µg/mL) | CO[C@@H]1C[C@]2(C)[C@@H]([C@H](C)CCC=C(C)C)CC[C@@]2(C)C2=C1[C@]1(C)[C@@H](CC2=O)[C@@](C)(C(=O)O)[C@@H](O)C[C@H]1O |
